One may read the IC50 as the midpoint of a concentration-inhibition curve.

Where a name gives a salt, the structure may show the parent alone.

In assay [1] the target is T1, myeloperoxidase (Homo sapiens, UniProt P05164).
T1 sequence (P05164 49-745): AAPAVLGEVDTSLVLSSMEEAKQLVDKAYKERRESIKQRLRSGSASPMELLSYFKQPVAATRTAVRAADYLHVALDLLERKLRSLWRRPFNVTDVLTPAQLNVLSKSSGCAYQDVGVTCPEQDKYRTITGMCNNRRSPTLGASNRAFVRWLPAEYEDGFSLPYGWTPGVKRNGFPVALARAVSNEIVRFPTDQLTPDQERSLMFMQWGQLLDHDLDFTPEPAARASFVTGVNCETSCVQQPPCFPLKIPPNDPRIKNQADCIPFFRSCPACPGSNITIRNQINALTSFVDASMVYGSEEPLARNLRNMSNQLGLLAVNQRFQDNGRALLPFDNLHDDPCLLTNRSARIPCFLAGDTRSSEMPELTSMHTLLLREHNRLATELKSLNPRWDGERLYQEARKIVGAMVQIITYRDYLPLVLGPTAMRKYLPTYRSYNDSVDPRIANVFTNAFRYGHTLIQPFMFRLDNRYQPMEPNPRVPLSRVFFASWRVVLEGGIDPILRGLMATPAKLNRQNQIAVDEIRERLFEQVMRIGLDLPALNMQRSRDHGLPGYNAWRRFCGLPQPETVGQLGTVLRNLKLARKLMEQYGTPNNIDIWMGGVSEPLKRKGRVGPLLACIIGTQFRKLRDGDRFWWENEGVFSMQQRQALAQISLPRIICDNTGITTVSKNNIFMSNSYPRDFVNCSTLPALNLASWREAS
Briefly: MPO Chlorination Assay (APF Assay). The format is biochemical. Conditions: potency range class.

In assay [2] the target is T1, myeloperoxidase. Briefly: MPO Peroxidation Assay (Amplex Red Assay). The format is biochemical. As to conditions: potency range class.
Where [3] appears, read: read-out: Amplex Red Assay IC50 value.

As to `Nc1cc([C@H](CC(=O)NC23CCC(c4ccccc4)(CC2)C(O)C3)c2ccccc2)c2nn[nH]c2n1` (stereo partly drawn) [Example 201, (3R)-3-{5-amino-3H-[1,2,3]triazolo[4,5-b]pyridin-7-yl}-N-{3-hydroxy-4-phenylbicyclo [2.2.2]octan-1-yl}-3-phenylpropanamide], the IC50 fell in the range of 0.001 to 0.1 µM in assay [1] (read-out: APF Assay IC50 value) and 0.101 to 0.999 µM in assay [2] (setting [3]).

For `Nc1cc([C@H](CC(=O)NC23CCC(c4ccccc4)(CC2)CC3)c2cccc(O)c2)c2nn[nH]c2n1` [Example 202, (3R)-3-{5-amino-3H-[1,2,3]triazolo[4,5-b]pyridin-7-yl}-3-(3-hydroxyphenyl)-N-{4-phenylbicyclo [2.2.2]octan-1-yl} propanamide], the 50% inhibitory concentration (IC50) in assay [1] (read-out: APF Assay IC50 value) was 0.001 to 0.1 µM; in assay [2] (setting [3]) it was 0.101 to 0.999 µM.

Turning to `Nc1cc([C@H](CC(=O)NC2CCC(c3ccccc3)c3ccccc32)c2ccccc2)c2nn[nH]c2n1` (stereo partly drawn) [Example 203, (3R)-3-{5-amino-3H-[1,2,3]triazolo[4,5-b]pyridin-7-yl}-3-phenyl-N-(4-phenyl-1,2,3,4-tetrahydronaphthalen-1-yl)propanamide], the IC50 in assay [1] (read-out: APF Assay IC50 value) lay within 0.101 to 0.999 µM; in assay [2] (setting [3]) it was 1 to 10 µM.

For the molecule `Nc1cc(C(CCCN2CC(c3ccc(F)cc3)c3ccccc32)c2ccccc2)c2nn[nH]c2n1` (stereo not shown) [Example 205, 7-{4-[3-(4-fluorophenyl)-2,3-dihydro-1H-indol-1-yl]-1-phenylbutyl}-3H-[1,2,3]triazolo [4,5-b]pyridin-5-amine], the 50% inhibitory concentration (IC50) in assay [1] (read-out: APF Assay IC50 value) and in assay [2] (setting [3]) was 1 to 10 µM throughout.

`Nc1cc(C(CCCN2CCC(c3ccccc3)c3ccccc32)c2ccccc2)c2nn[nH]c2n1` (stereo not shown) [Example 206, 7-[1-phenyl-4-(4-phenyl-1,2,3,4-tetrahydroquinolin-1-yl)butyl]-3H-[1,2,3]triazolo [4,5-b]pyridin-5-amine]: the half-inhibitory concentration (IC50) in assay [1] (read-out: APF Assay IC50 value) was in the range of 0.001 to 0.1 µM; in assay [2] (setting [3]), 1 to 10 µM.

Regarding `Nc1cc(C(CCCN2CCC(O)(c3ccccc3)CC2)c2ccccc2)c2nn[nH]c2n1` (stereo not shown) [Example 207, 1-(4-{5-amino-3H-[1,2,3]triazolo [4,5-b]pyridin-7-yl}-4-phenylbutyl)-4-phenylpiperidin-4-ol], the half-inhibitory concentration (IC50) in assay [1] (read-out: APF Assay IC50 value) was 0.001 to 0.1 µM; in assay [2] (setting [3]), 0.101 to 0.999 µM.

In the case of `Nc1cc(C(CCCN[C@H]2CC[C@H](c3ccccc3)CC2)c2ccccc2)c2nn[nH]c2n1` (stereo partly drawn) [Example 208, 7-(1-phenyl-4-{[(trans)-4-phenylcyclohexyl]amino}butyl)-3H-[1,2,3]triazolo [4,5-b]pyridin-5-amine], the IC50 in assay [1] (read-out: APF Assay IC50 value) was in the range of 0.101 to 0.999 µM; in assay [2] (setting [3]) it was 1 to 10 µM.

With `Nc1cc(C(CCCN2CCC(c3ccccc3)C2)c2ccccc2)c2nn[nH]c2n1` (stereo not shown) [Example 209, 7-[1-phenyl-4-(3-phenylpyrrolidin-1-yl)butyl]-3H-[1,2,3]triazolo [4,5-b]pyridin-5-amine], the IC50 in assay [1] (read-out: APF Assay IC50 value) and in assay [2] (setting [3]) was 0.101 to 0.999 µM in each case.

For the molecule `Nc1cc(C(CCCN2CCC3(CC2)OCc2ccccc23)c2ccccc2)c2nn[nH]c2n1` (stereo not shown) [Example 210, 7-(1-phenyl-4-{3H-spiro[2-benzofuran-1,4′-piperidine]-1′-yl}butyl)-3H-[1,2,3]triazolo [4,5-b]pyridin-5-amine], the 50% inhibitory concentration (IC50) in assay [1] (read-out: APF Assay IC50 value) lay in the range of 0.001 to 0.1 µM; in assay [2] (setting [3]), 0.101 to 0.999 µM.

Take `N#CC1(c2ccccc2)CCN(CCCC(c2ccccc2)c2cc(N)nc3[nH]nnc23)CC1` (stereo not shown) [Example 211, 1-(4-{5-amino-3H-[1,2,3]triazolo [4,5-b]pyridin-7-yl}-4-phenylbutyl)-4-phenylpiperidine-4-carbonitrile]: the values for the IC50 in assay [1] (read-out: APF Assay IC50 value) and in assay [2] (setting [3]) were 0.001 to 0.1 µM and 0.101 to 0.999 µM, respectively.

Take `Nc1cc(C(CCCN2CCCC(c3ccccc3)CC2)c2ccccc2)c2nn[nH]c2n1` (stereo not shown) [Example 212, 7-[1-phenyl-4-(4-phenylazepan-1-yl)butyl]-3H-[1,2,3] triazolo[4,5-b] pyridin-5-amine]: the concentration for half-maximal inhibition (IC50) in assay [1] (read-out: APF Assay IC50 value) fell in the range of 0.001 to 0.1 µM; in assay [2] (setting [3]), 0.101 to 0.999 µM.

For the molecule `Nc1cc(C(CCCN2CCC(Cc3ccccc3)CC2)c2ccccc2)c2nn[nH]c2n1` (stereo not shown) [Example 213, 7-[4-(4-benzylpiperidin-1-yl)-1-phenylbutyl]-3H-[1,2,3]triazolo [4,5-b]pyridin-5-amine], the concentration for half-maximal inhibition (IC50) in assay [1] (read-out: APF Assay IC50 value) and in assay [2] (setting [3]) was 0.101 to 0.999 µM in each case.

For `Nc1cc([C@H](CCCN2CCCC(c3ccccc3)CC2)c2ccccc2)c2nn[nH]c2n1` (stereo partly drawn) [Example 215, 7-[(1R)-1-phenyl-4-(4-phenylazepan-1-yl)butyl]-3H-[1,2,3]triazolo[4,5-b]pyridin-5-amine], the IC50 in assay [1] (read-out: APF Assay IC50 value) was 0.001 to 0.1 µM; in assay [2] (setting [3]) it was 0.101 to 0.999 µM.

Regarding `Nc1cc([C@H](CCCN2[C@@H]3CC[C@H]2C[C@](O)(c2ccc(Cl)cc2)C3)c2ccccc2)c2nn[nH]c2n1` [Example 216, (1R,3R,5S)-8-[(4R)-4-{5-amino-3H-[1,2,3]triazolo [4,5-b]pyridin-7-yl}-4-phenylbutyl]-3-(4-chlorophenyl)-8-azabicyclo[3.2.1] octan-3-ol], the IC50 in assay [1] (read-out: APF Assay IC50 value) lay in the range of 0.001 to 0.1 µM; in assay [2] (setting [3]) it was 0.101 to 0.999 µM.

On to `Nc1cc([C@H](CCCN2CCC3(CC2)NC(=O)Cc2ccccc23)c2ccccc2)c2nn[nH]c2n1` [Example 217, 1′-[(4R)-4-{5-amino-3H-[1,2,3]triazolo [4,5-b]pyridin-7-yl}-4-phenylbutyl]-3,4-dihydro-2H-spiro[isoquinoline-1,4′-piperidine]-3-one], for which the 50% inhibitory concentration (IC50) in assay [1] (read-out: APF Assay IC50 value) and in assay [2] (setting [3]) was 0.101 to 0.999 µM throughout.

Take `Nc1cc([C@H](CCCN2CCC(c3ccc4ccccc4c3)CC2)c2ccccc2)c2nn[nH]c2n1` [Example 218, 7-[(1R)-4-[4-(naphthalen-2-yl)piperidin-1-yl]-1-phenylbutyl]-3H-[1,2,3]triazolo[4,5-b] pyridin-5-amine]: the results for the 50% inhibitory concentration (IC50) in assay [1] (read-out: APF Assay IC50 value) and in assay [2] (setting [3]) were 0.001 to 0.1 µM and 0.101 to 0.999 µM, respectively.

`Nc1cc([C@H](CCCN2CC[C@H]3C[C@@H]2Cc2ccccc23)c2ccccc2)c2nn[nH]c2n1` [Example 219, 7-((R)-1-phenyl-4-((2R,6S)-1,4,5,6-tetrahydro-2,6-methanobenzo[d]azocin-3(2H)-yl)butyl)-3H-[1,2,3] triazolo[4,5-b] pyridin-5-amine]: the results for the IC50 in assay [1] (APF Assay IC50 value (μM)) and in assay [2] (Amplex Red Assay IC50 value (μM)) were 0.001 to 0.1 µM and 0.101 to 0.999 µM, respectively.

As to `Nc1cc([C@H](CCCN2CCC(c3cccc(C(F)(F)F)c3)C(O)C2)c2ccccc2)c2nn[nH]c2n1` (stereo partly drawn) [Example 220, 1-[(4R)-4-{5-amino-3H-[1,2,3]triazolo [4,5-b]pyridin-7-yl}-4-phenylbutyl]-4-[3-(trifluoromethyl)phenyl]piperidin-3-ol], the IC50 in assay [1] (read-out: APF Assay IC50 value) and in assay [2] (setting [3]) was 0.101 to 0.999 µM in each case.

In the case of `Nc1cc([C@H](CCCN2CCC(Cc3ccccc3)C2)c2ccccc2)c2nn[nH]c2n1` (stereo partly drawn) [Example 221, 7-[(1R)-4-(3-benzylpyrrolidin-1-yl)-1-phenylbutyl]-3H-[1,2,3]triazolo[4,5-b]pyridin-5-amine], the IC50 in assay [1] (read-out: APF Assay IC50 value) and in assay [2] (setting [3]) was 0.101 to 0.999 µM each time.

Consider `Nc1cc([C@H](CCCN2CCC3(CC2)NC(=O)Nc2ccccc23)c2ccccc2)c2nn[nH]c2n1` [Example 222, 1-[(4R)-4-{5-amino-3H-[1,2,3]triazolo [4,5-b]pyridin-7-yl}-4-phenylbutyl]-2′,3′-dihydro-1′H-spiro [piperidine-4,4′-quinazoline]-2′-one], for which the IC50 was 0.001 to 0.1 µM in assay [1] (read-out: APF Assay IC50 value) and 1 to 10 µM in assay [2] (setting [3]).

Take `Nc1cc(C(CCO[C@H]2CC[C@H](c3ccccc3)CC2)c2ccccc2)c2nn[nH]c2n1` (stereo partly shown) [Example 223, 7-(1-phenyl-3-((4-phenylcyclohexyl)oxy)propyl)-3H-[1,2,3]triazolo[4,5-b]pyridin-5-amine]: the concentration for half-maximal inhibition (IC50) in assay [1] (read-out: APF Assay IC50 value) and in assay [2] (setting [3]) was 0.101 to 0.999 µM each time.

Turning to `Nc1cc(C(CC(O)CCc2ccccc2)c2ccccc2)c2nn[nH]c2n1` (stereo not shown) [Example 225, 1-(5-amino-3H-[1,2,3]triazolo[4,5-b]pyridin-7-yl)-1,5-diphenylpentan-3-ol, TFA], the IC50 in assay [1] (read-out: APF Assay IC50 value) and in assay [2] (setting [3]) was 0.101 to 0.999 µM in each case.

`Nc1cc(C(CNCC(F)(F)c2ccccc2)c2ccccc2)c2nn[nH]c2n1` (stereo not shown) [Example 226, 7-(2-((2,2-difluoro-2-phenylethyl)amino)-1-phenylethyl)-3H-[1,2,3]triazolo[4,5-b]pyridin-5-amine]: the half-maximal inhibitory concentration (IC50) in assay [1] (read-out: APF Assay IC50 value) and in assay [2] (setting [3]) was 0.101 to 0.999 µM each time.

Regarding `Nc1cc(C(CNCCc2ccccc2)c2ccccc2)c2nn[nH]c2n1` (stereo not shown) [Example 228, 7-{1-phenyl-2-[(2-phenylethyl)amino]ethyl}-3H-[1,2,3]triazolo[4,5-b]pyridin-5-amine], the half-inhibitory concentration (IC50) in assay [1] (read-out: APF Assay IC50 value) and in assay [2] (setting [3]) was 1 to 10 µM in each case.

For the molecule `Nc1cc(C(Cc2ccc(O)cc2)c2ccccc2)c2nn[nH]c2n1` (stereo not shown) [Example 229, 4-(2-(5-amino-3H-[1,2,3]triazolo[4,5-b]pyridin-7-yl)-2-phenylethyl)phenol], the results for the IC50 in assay [1] (read-out: APF Assay IC50 value) and in assay [2] (setting [3]) were 0.101 to 0.999 µM and 0.001 to 0.1 µM, respectively.

Consider `Nc1cc(C(Cc2cccc(O)c2)c2ccccc2)c2nn[nH]c2n1` (stereo not shown) [Example 230, 3-(2-(5-amino-3H-[1,2,3]triazolo[4,5-b]pyridin-7-yl)-2-phenylethyl)phenol], for which the IC50 was 1 to 10 µM in assay [1] (read-out: APF Assay IC50 value) and 0.001 to 0.1 µM in assay [2] (setting [3]).

The values above are taken from patent publication US11008317B2, “Triazolopyridine inhibitors of myeloperoxidase and/or EPX” (priority 2016, dated 2021).
